Values of other authors in US20070196322A1, “Method of preparing the colon for virtual colonoscopy” (Braintree Laboratories Inc., priority 2005, published 2007).
Like-named read-outs stand apart in the source and are kept apart here.

Tested on: patient

CC(=O)Oc1ccc(C(c2ccc(OC(C)=O)cc2)c2ccccn2)cc1 [Bisacodyl, bisacodyl]
time to bowel movement (enemas): about 20 minutes | time to bowel movement (oral administration of a tablet): three to six | time to bowel movement (oral administration of a tablet, listed as bisacodyl): three to about six | time to bowel movement (suppositories): about an hour
